Results published in the NIST ThermoML archive (doi:10.1021/je7003929).

Test: xn = mol fraction of the nth substance listed
Conditions: Liquid, Vibrating tube method

c1ccc2sccc2c1 [benzo[b]thiophene] + CCCCCC
Conditions | mass density [kg/m3]
352.41 K, 1015 kPa, x2 = 0.0629 | 1076.7
352.41 K, 2020 kPa, x2 = 0.0629 | 1077.4
352.41 K, 3016 kPa, x2 = 0.0629 | 1078.1
352.41 K, 4038 kPa, x2 = 0.0629 | 1078.8
352.41 K, 5000 kPa, x2 = 0.0629 | 1079.5
352.41 K, 6001 kPa, x2 = 0.0629 | 1080.4
352.41 K, 7017 kPa, x2 = 0.0629 | 1081.1
352.41 K, 8008 kPa, x2 = 0.0629 | 1082
352.41 K, 9017 kPa, x2 = 0.0629 | 1082.6
352.41 K, 10026 kPa, x2 = 0.0629 | 1083.4
352.41 K, 11018 kPa, x2 = 0.0629 | 1084.1
352.41 K, 12014 kPa, x2 = 0.0629 | 1084.7
352.41 K, 13014 kPa, x2 = 0.0629 | 1085.4
352.41 K, 14022 kPa, x2 = 0.0629 | 1086.2
352.41 K, 15028 kPa, x2 = 0.0629 | 1086.8
352.41 K, 16020 kPa, x2 = 0.0629 | 1087.6
352.41 K, 17023 kPa, x2 = 0.0629 | 1088.2
352.41 K, 18015 kPa, x2 = 0.0629 | 1088.8
352.41 K, 19016 kPa, x2 = 0.0629 | 1089.5
352.41 K, 20019 kPa, x2 = 0.0629 | 1090.2
352.53 K, 1025 kPa, x2 = 0.9432 | 630.4
352.53 K, 1026 kPa, x2 = 0.7491 | 725.1
352.53 K, 2023 kPa, x2 = 0.9432 | 632.1
352.53 K, 2026 kPa, x2 = 0.7491 | 726.5
352.53 K, 3024 kPa, x2 = 0.7491 | 727.8
352.53 K, 3030 kPa, x2 = 0.9432 | 633.8
352.53 K, 4018 kPa, x2 = 0.9432 | 635.4
352.53 K, 4034 kPa, x2 = 0.7491 | 729.2
352.53 K, 5014 kPa, x2 = 0.7491 | 730.5
352.53 K, 5021 kPa, x2 = 0.9432 | 637
352.53 K, 6018 kPa, x2 = 0.9432 | 638.5
352.53 K, 6040 kPa, x2 = 0.7491 | 731.8
352.53 K, 7010 kPa, x2 = 0.9432 | 639.9
352.53 K, 7028 kPa, x2 = 0.7491 | 733
352.53 K, 8017 kPa, x2 = 0.7491 | 734.3
352.53 K, 8018 kPa, x2 = 0.9432 | 641.4
352.53 K, 9003 kPa, x2 = 0.7491 | 735.5
352.53 K, 9044 kPa, x2 = 0.9432 | 642.8
352.53 K, 10008 kPa, x2 = 0.7491 | 736.7
352.53 K, 10011 kPa, x2 = 0.9432 | 644.2
352.53 K, 11016 kPa, x2 = 0.7491 | 737.9
352.53 K, 11022 kPa, x2 = 0.9432 | 645.5
352.53 K, 12002 kPa, x2 = 0.7491 | 739
352.53 K, 12013 kPa, x2 = 0.9432 | 646.9
352.53 K, 13005 kPa, x2 = 0.9432 | 648.2
352.53 K, 13020 kPa, x2 = 0.7491 | 740.2
352.53 K, 14000 kPa, x2 = 0.9432 | 649.5
352.53 K, 14016 kPa, x2 = 0.7491 | 741.3
352.53 K, 15021 kPa, x2 = 0.9432 | 650.8
352.53 K, 15037 kPa, x2 = 0.7491 | 742.5
352.53 K, 16022 kPa, x2 = 0.9432 | 652
352.53 K, 16035 kPa, x2 = 0.7491 | 743.6
352.53 K, 17001 kPa, x2 = 0.9432 | 653.2
352.53 K, 17020 kPa, x2 = 0.7491 | 744.6
352.53 K, 18013 kPa, x2 = 0.9432 | 654.4
352.53 K, 18020 kPa, x2 = 0.7491 | 745.7
352.53 K, 19007 kPa, x2 = 0.9432 | 655.6
352.53 K, 19008 kPa, x2 = 0.7491 | 746.7
352.53 K, 20019 kPa, x2 = 0.7491 | 747.8
352.53 K, 20039 kPa, x2 = 0.9432 | 656.7
352.63 K, 1037 kPa, x2 = 0.4495 | 874.2
352.63 K, 2029 kPa, x2 = 0.4495 | 875.3
352.63 K, 3026 kPa, x2 = 0.4495 | 876.4
352.63 K, 4032 kPa, x2 = 0.4495 | 877.5
352.63 K, 5015 kPa, x2 = 0.4495 | 878.5
352.63 K, 6024 kPa, x2 = 0.4495 | 879.5
352.63 K, 7028 kPa, x2 = 0.4495 | 880.5
352.63 K, 8017 kPa, x2 = 0.4495 | 881.5
352.63 K, 9003 kPa, x2 = 0.4495 | 882.5
352.63 K, 10022 kPa, x2 = 0.4495 | 883.5
352.63 K, 11024 kPa, x2 = 0.4495 | 884.5
352.63 K, 12013 kPa, x2 = 0.4495 | 885.4
352.63 K, 13038 kPa, x2 = 0.4495 | 886.4
352.63 K, 14000 kPa, x2 = 0.4495 | 887.3
352.63 K, 15021 kPa, x2 = 0.4495 | 888.2
352.63 K, 16012 kPa, x2 = 0.4495 | 889.1
352.63 K, 17010 kPa, x2 = 0.4495 | 890
352.63 K, 18015 kPa, x2 = 0.4495 | 890.9
352.63 K, 19022 kPa, x2 = 0.4495 | 891.8
352.63 K, 20005 kPa, x2 = 0.4495 | 892.7
362.31 K, 1028 kPa, x2 = 0.9432 | 620.3
362.31 K, 2031 kPa, x2 = 0.9432 | 622.2
362.31 K, 3031 kPa, x2 = 0.9432 | 624
362.31 K, 4012 kPa, x2 = 0.9432 | 625.7
362.31 K, 5026 kPa, x2 = 0.9432 | 627.4
362.31 K, 6013 kPa, x2 = 0.9432 | 629.1
362.31 K, 7022 kPa, x2 = 0.9432 | 630.7
362.31 K, 8014 kPa, x2 = 0.9432 | 632.3
362.31 K, 9000 kPa, x2 = 0.9432 | 633.7
362.31 K, 10011 kPa, x2 = 0.9432 | 635.3
362.31 K, 11007 kPa, x2 = 0.9432 | 636.7
362.31 K, 12007 kPa, x2 = 0.9432 | 638.2
362.31 K, 13008 kPa, x2 = 0.9432 | 639.6
362.31 K, 14024 kPa, x2 = 0.9432 | 640.9
362.31 K, 15002 kPa, x2 = 0.9432 | 642.3
362.31 K, 16016 kPa, x2 = 0.9432 | 643.6
362.31 K, 17000 kPa, x2 = 0.9432 | 644.9
362.31 K, 18008 kPa, x2 = 0.9432 | 646.3
362.31 K, 19018 kPa, x2 = 0.9432 | 647.5
362.31 K, 20028 kPa, x2 = 0.9432 | 648.8
362.33 K, 1020 kPa, x2 = 0.7491 | 715.3
362.33 K, 2034 kPa, x2 = 0.7491 | 716.8
362.33 K, 3013 kPa, x2 = 0.7491 | 718.3
362.33 K, 4007 kPa, x2 = 0.7491 | 719.7
362.33 K, 5015 kPa, x2 = 0.7491 | 721.2
362.33 K, 6018 kPa, x2 = 0.7491 | 722.5
362.33 K, 7015 kPa, x2 = 0.7491 | 723.9
362.33 K, 8017 kPa, x2 = 0.7491 | 725.2
362.33 K, 9024 kPa, x2 = 0.7491 | 726.5
362.33 K, 10010 kPa, x2 = 0.7491 | 727.8
362.33 K, 10996 kPa, x2 = 0.7491 | 729.1
362.33 K, 12027 kPa, x2 = 0.7491 | 730.4
362.33 K, 13022 kPa, x2 = 0.7491 | 731.6
362.33 K, 14016 kPa, x2 = 0.7491 | 732.8
362.33 K, 15023 kPa, x2 = 0.7491 | 734
362.33 K, 16012 kPa, x2 = 0.7491 | 735.1
362.33 K, 17011 kPa, x2 = 0.7491 | 736.3
362.33 K, 18012 kPa, x2 = 0.7491 | 737.4
362.33 K, 19030 kPa, x2 = 0.7491 | 738.6
362.33 K, 20017 kPa, x2 = 0.7491 | 739.7
362.5 K, 1028 kPa, x2 = 0.4495 | 864.8
362.5 K, 2025 kPa, x2 = 0.4495 | 866
362.5 K, 3020 kPa, x2 = 0.4495 | 867.1
362.5 K, 4000 kPa, x2 = 0.4495 | 868.2
362.5 K, 5045 kPa, x2 = 0.4495 | 869.3
362.5 K, 6017 kPa, x2 = 0.4495 | 870.4
362.5 K, 7018 kPa, x2 = 0.4495 | 871.5
362.5 K, 8013 kPa, x2 = 0.4495 | 872.5
362.5 K, 9024 kPa, x2 = 0.4495 | 873.6
362.5 K, 10011 kPa, x2 = 0.4495 | 874.6
362.5 K, 11008 kPa, x2 = 0.4495 | 875.6
362.5 K, 12025 kPa, x2 = 0.4495 | 876.6
362.5 K, 13004 kPa, x2 = 0.4495 | 877.6
362.5 K, 14014 kPa, x2 = 0.4495 | 878.6
362.5 K, 15011 kPa, x2 = 0.4495 | 879.6
362.5 K, 16027 kPa, x2 = 0.4495 | 880.6
362.5 K, 17017 kPa, x2 = 0.4495 | 881.5
362.5 K, 18030 kPa, x2 = 0.4495 | 882.5
362.5 K, 19022 kPa, x2 = 0.4495 | 883.4
362.5 K, 20002 kPa, x2 = 0.4495 | 884.3
